From PMC5855800, “Charged N-terminus of Influenza Fusion Peptide Facilitates Membrane Fusion” (International Journal of Molecular Sciences, 2018)
Values joined by “and” are separate entries in the source; they are usually repeats but may differ in a detail not shown here. Equal entries are not always repeated. Where two headings read alike, the source gives them in different places.

How the values were obtained:
[1] = assay type: binding
[2] = NMR, cited from earlier work
Excerpt: These values are considerably higher than expected in a hydrophobic environment (8.00 ± 0.03). […] T ...

[3] = POPC vesicles; cited from earlier work
Excerpt: Since the early observations by Lear and de Grado [2] showing that membrane fusion of lipid vesicles can be accomplished by a short N-terminal synthetic fragment of HA2 subunit, such fusion peptides (HAfp) have been extensively used as full-length hemagglutinin mimicking species in the studies on membrane fusion. […] This is ...

[4] = pH 5

| Compound | Gibbs binding free energy ΔGx^0 ([1]; pH 5.0) [kcal/mol] | Gibbs binding free energy ΔGx^0 ([1]; pH 7.4) [kcal/mol] | pK for G1 N-terminal amino group ([2]; in the presence of dioleoyl phosphocholine (PC) lipids) | Ability to induce membrane fusion, in words [3] | NBD-C6-PE fluorescence lifetime with peptide [4] [ns] | Difference of ∆G^0 between N-acetylated and unmodified peptide of the same length ([1]; pH 5.0) | pK for G1 N-terminal amino group ([2]; in the presence of dodecylphosphatidyl (DPC) detergents) | Partition coefficient Kx·10^−3 ([1]; 22.0 °C) |
| --- | --- | --- | --- | --- | --- | --- | --- | --- |
| CC[C@H](C)[C@H](NC(=O)[C@H](C)NC(=O)CNC(=O)[C@H](Cc1ccccc1)NC(=O)[C@H](CC(C)C)NC(=O)CNC(C)=O)C(=O)N[C@@H](C)C(=O)NCC(=O)N[C@@H](Cc1ccccc1)C(=O)N[C@H](C(=O)N[C@@H](CCC(=O)O)C(=O)NCC(=O)NCC(=O)N[C@@H](Cc1c[nH]c2ccccc12)C(=O)N[C@@H](CCC(N)=O)C(=O)NCC(=O)N[C@@H](CCSC)C(=O)N[C@H](C(=O)N[C@@H](CC(=O)O)C(=O)NCC(N)=O)C(C)C)[C@@H](C)CC [20Ac] | -7.55 ± 0.048 | -6.86 ± 0.048 | – | – | – | – | – | – |
| CC[C@H](C)[C@H](NC(=O)[C@H](C)NC(=O)CNC(=O)[C@H](Cc1ccccc1)NC(=O)[C@H](CC(C)C)NC(=O)CN)C(=O)N[C@@H](C)C(=O)NCC(=O)N[C@@H](Cc1ccccc1)C(=O)N[C@H](C(=O)N[C@@H](CCC(=O)O)C(=O)NCC(=O)NCC(=O)N[C@@H](Cc1c[nH]c2ccccc12)C(=O)N[C@@H](CCC(N)=O)C(=O)NCC(=O)N[C@@H](CCSC)C(=O)N[C@H](C(=O)N[C@@H](CC(=O)O)C(=O)NCC(N)=O)C(C)C)[C@@H](C)CC [20N+] | -7.84 ± 0.072 | -7.19 ± 0.096 | 8.69 | able to induce membrane fusion | 6.78 ± 0.20 | – | – | – |
| CC[C@H](C)[C@H](NC(=O)[C@H](C)NC(=O)CNC(=O)[C@H](Cc1ccccc1)NC(=O)[C@H](CC(C)C)NC(=O)CNC(C)=O)C(=O)N[C@@H](C)C(=O)NCC(=O)N[C@@H](Cc1ccccc1)C(=O)N[C@H](C(=O)N[C@@H](CCC(=O)O)C(=O)NCC(=O)NCC(=O)N[C@@H](Cc1c[nH]c2ccccc12)C(=O)N[C@@H](CCC(N)=O)C(=O)NCC(=O)N[C@@H](CCSC)C(=O)N[C@H](C(=O)N[C@@H](CC(=O)O)C(=O)NCC(=O)N[C@@H](Cc1c[nH]c2ccccc12)C(=O)N[C@@H](Cc1ccc(O)cc1)C(=O)NCC(N)=O)C(C)C)[C@@H](C)CC [23Ac] | -8.41 ± 0.072 | -8.94 ± 0.048 | – | – | 6.66 ± 0.25 | ~ 2.3 kJ/mol | – | – |
| CC[C@H](C)[C@H](NC(=O)[C@H](C)NC(=O)CNC(=O)[C@H](Cc1ccccc1)NC(=O)[C@H](CC(C)C)NC(=O)CN)C(=O)N[C@@H](C)C(=O)NCC(=O)N[C@@H](Cc1ccccc1)C(=O)N[C@H](C(=O)N[C@@H](CCC(=O)O)C(=O)NCC(=O)NCC(=O)N[C@@H](Cc1c[nH]c2ccccc12)C(=O)N[C@@H](CCC(N)=O)C(=O)NCC(=O)N[C@@H](CCSC)C(=O)N[C@H](C(=O)N[C@@H](CC(=O)O)C(=O)NCC(=O)N[C@@H](Cc1c[nH]c2ccccc12)C(=O)N[C@@H](Cc1ccc(O)cc1)C(=O)NCC(N)=O)C(C)C)[C@@H](C)CC [23N+] | -7.86 ± 0.072 | -7.67 ± 0.17 | – | – | 6.55 ± 0.23 | – | 8.8 | 660 ± 80 and 480 ± 130 |
